Experimental data taken from BindingDB's records for doi:10.1021/jm980551o (Novartis, 1999).

Assay: Inhibition of EGF-dependent mouse keratinocyte MK cell proliferation

IC50: < 100 nM
SMILES: COc1cc2ncnc(Nc3cccc(Cl)c3)c2cc1OC
